According to patent US7264932B2, “Nuclease inhibitor cocktail” (Applera Corporation, priority 1999, dated 2007):
“And” between values parts separate entries of the source, which are not always exact repeats. Equal entries are not always repeated.

Legend:
RNase A, 1, and T1 = assay: Anti-RNase antibodies / Specific Anti-RNase Cocktail with added non-antibody inhibitor; type: biochemical; conditions: for effect on action of Specific Anti-RNase Cocktail against RNase A, 1, and T1: detergent added to cocktail at 0.1% to 1%
Procedure: (§1) The activity of an anti-nuclease cocktail is readily determined using radiolabeled RNA or DNA to detect the inhibition of nuclease by anti-nuclease antibodies in the anti-nuclease cocktail. […] Assay buffer, nuclease and an anti-nuclease cocktail are then added to 0.5 ml microfuge tubes. A mixture comprising assay buffer, RNA or DNA and radiolabeled RNA or DNA is added to the microfuge tubes, and the tubes are vortexed and microfuged. After incubation of the tubes at 37° C. for 30 minutes, a portion of the tube contents is removed and placed into gel loading buffer. After mixing, the combination is loaded onto a gel, typically a 8M urea/5% acrylamide gel, which is exposed to film.
(§2) Radiolabeled RNA was used to detect the inhibition of RNase A, RNase T1, and RNase 1 by specific antibodies.
(§3) The “MIX” was prepared by combining 10× Assay Buffer (0.9 μl/rxn), 5 mg/ml yeast RNA (0.4 μl/rxn), ^32P-labeled β actin RNA (1 μl/rxn), and nuclease-free H2O (6.7 μl/rxn), for a total of 9 μl/rxn.
(§4) 1× Assay Buffer was added first. Then Specific RNase Cocktail, Specific Anti-RNase Cocktail and MIX were added. The tubes are vortexed and microfuged, then incubated at 37° C. for 30 min (Table 9).
(§5) At the end of the incubation time, 10 μl of solution was removed from the tube and placed into 10 μl Gel Loading Buffer II. The combination was mixed thoroughly and loaded onto a 8M urea/5% acrylamide gel. The gel was exposed to film for 30 min. at −80° C. with an intensifying screen.

nuclease = nuclease (Homo sapiens, UniProt P03950); assay: Ki of Lead 1 and Lead 2 analogs (Tables 1 and 2); type: biochemical; conditions: Table 1, Lead 1 Analog List
diluted pancreas lysate = assay: Intactness of total RNA (RNA LabChip), diluted pancreas lysate; type: biochemical, mouse
Procedure: A total of 100 pg/ul e. […].
Pancreatic lysate (0.1 mg/ml) was diluted 1:20,000 in 24 mM Hepes, pH 7.2, 50 mM NaCl, 1 mM MgCl2 and pre-incubated with either 1% SDS or 6.25 mM OVA for 30 s prior to the addition of 2 ug mouse liver total RNA. Reactions were incubated at 25 C for an additional 4 min, quenched, and analyzed on an RNA LabChip.
Mouse pancreatic tissue (5 mg) was disrupted in 50 ul of 24 mM Hepes, pH 7.2, 50 mM NaCl, 1 mM MgCl2. The diluted lysate (1:20,000) was pre-incubated with 50 uM Benzopurpurin B (BpB) for 30 sec and then added to 100 ng/ul mouse liver total RNA (Ambion) and incubated at 23 C for an additional 4 min. Samples were quenched in a guanidinium lysis buffer, and the RNA purified via MEGAclear™ MAG-96 and eluted with 20 ul nuclease-free water. […] These experiments were conducted in the same fashion except that 100 uM BpB was employed. The sample (1 ul) was analyzed by 2100 BioAnalyzer software (Agilent) after separation on an RNA LabChip.
Mouse pancreatic tissue (5 mg) was dounced in 50 ul of 24 mM Hepes, pH 7.2, 50 mM NaCl, 1 mM MgCl2. A diluted lysate (1:20,000) was pre-incubated with 100 uM BpB or the analog Benzopurpurin 4B (Bp4B) for 30 sec and then added to 100 ng/ul mouse liver total RNA (Ambion) and incubated at 23 C for an additional 4 min. Samples were quenched in a guanidinium lysis buffer, and the RNA purified via MEGAclear™ MAG-96 and eluted with 20 ul nuclease-free water. The sample (1 ul) was analyzed by 2100 BioAnalyzer software (Agilent) after separation on an RNA LabChip.
Pancreatic tissue (5 mg) was dounced in 50 ul of 24 mM Hepes, pH 7.2, 50 mM NaCl, 1 mM MgCl2. The lysate was diluted (1:20,000) and then pre-incubated with 200 uM of 467929. […] All samples were pre-incubated for 30 sec before being added to 100 ng/ul mouse liver total RNA (Ambion) and incubated at 23C for an additional 4 min. The RNA was then immediately purified via MEGAclear™ MAG-96 and eluted with 20 ul nuclease-free water. The recovered RNA (1 ul) was analyzed by 2100 BioAnalyzer software after separation on an RNA LabChip.

DNase I = DNase I (Bos taurus, UniProt P00639); assay: Lambda DNA digestion assay with DNase I; type: biochemical; conditions: 0.1 U DNase, inhibitor at 5×Ki
Excerpt: One application for small molecule RNase inhibitors is as an RNA control agent during enzymatic manipulation of solutions containing RNA. These reactions include in vitro transcription, in vitro translation, DNase digestion, and reverse transcription, among others. […] […] […] All reactions were quenched with EDTA and the cleavage products resolved on a 1% agarose gel.
As a result, compounds such as #467929, 140553, and 180582 may have utility in curbing the activity of residual RNases that may carry over from RNA isolation methods during DNase treatments of the RNA.

[1] = tested on: one-step RT-PCR with MMLV-RT and SuperTaq, human CDC-2 mRNA; assay: One-step qRT-PCR tolerance, human CDC-2; type: biochemical
Procedure: The compatibility of #467929 and 227726 were tested in Ambion's MessageSensor RT-PCR Kit according to the supplier's instructions and using primers/probe designed to amplify a ˜100 nt amplicon from the human CDC-2 mRNA. The reaction conditions were: 20-ul one-step RT-PCR with MMLV-RT (0.4 U/ul final) and SuperTaq (0.04 U/ul final). The cycling conditions were: Stage 1. 42 C for 15 minutes Stage 2. 95 C for 5 min, Stage 3. 95 C-15 sec and 60 C-60 sec where Stage 3 is repeated 40 times. The input template was HeLa-S3 total RNA at either 1 ng or 10 ng/reaction. […] Consequently, these compounds may have utility in controlling any RNA degradation that might occur during the cDNA synthesis step of RT-PCR.

MMLV RT RNase H = MMLV RT RNase H (Moloney murine leukemia virus, UniProt P03355); assay: RT-based RNase H cleavage of RNA:DNA hybrid; type: biochemical
Procedure: As described above, Chembridge compound #467929 offered protection from several RNA-specific endonucleolytic activities. […] A 20-mer DNA oligonucleotide was asymmetrically annealed to a 1500 base synthetic RNA to create an RNA:DNA duplex substrate for RNase H. Reactions were initiated with 10 U of MMLV RT in 1× RT buffer (50 mM TrisCl pH 8.3, 75 mM KC, 3 mM MgCl2, 5 mM DTT) containing 500 ng/ul RNA:DNA hybrid. All reactions contained 5% DMSO either with or without the small molecule RNase inhibitor. Samples were incubated for 5 min at 37 C, and quenched with EDTA. Products were resolved on an RNA LabChip. Cleavage products were observed as two equally represented RNA species of 1000 and 500 bases. Product length and yield were determined using the 2100 BioAnalyzer software (Agilent). Table 18 details the level of inhibition of MMLV RT RNase H that is observed as a function of the concentration of compounds 467929 and 227726.

RNase A = target: T1, RNase A (Bos taurus, UniProt P61823); assay: Radiolabeled RNA probe degradation gel assay, RNase A; type: biochemical
T1 sequence (P61823 27-150): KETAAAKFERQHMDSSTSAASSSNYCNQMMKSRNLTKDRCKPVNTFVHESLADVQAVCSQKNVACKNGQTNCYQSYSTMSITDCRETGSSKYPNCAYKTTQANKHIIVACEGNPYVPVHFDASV
Procedure: as §1, §2, §3, §4, §5

Chain of DNase I (P00639 23-282): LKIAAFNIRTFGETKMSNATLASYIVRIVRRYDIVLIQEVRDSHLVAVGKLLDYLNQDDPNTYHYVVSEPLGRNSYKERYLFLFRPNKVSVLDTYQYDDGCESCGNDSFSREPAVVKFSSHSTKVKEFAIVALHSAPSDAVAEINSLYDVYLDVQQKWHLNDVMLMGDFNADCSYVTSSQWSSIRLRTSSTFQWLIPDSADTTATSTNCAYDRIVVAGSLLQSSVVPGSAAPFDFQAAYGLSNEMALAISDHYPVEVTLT
Chain of nuclease (P03950 25-147): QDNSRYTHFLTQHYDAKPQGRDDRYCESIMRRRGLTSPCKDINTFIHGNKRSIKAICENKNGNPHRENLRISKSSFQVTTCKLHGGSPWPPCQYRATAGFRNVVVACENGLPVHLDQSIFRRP

C[C@H](CCC(=O)NCCC[N+](C)(C)CCCS(=O)(=O)[O-])[C@H]1CC[C@H]2[C@@H]3[C@H](O)C[C@@H]4C[C@H](O)CC[C@]4(C)[C@H]3C[C@H](O)[C@]12C [CHAPS]
effect on action of Specific Anti-RNase Cocktail against RNase A, 1, and T1 (RNase A, 1, and T1): strengthened the action of Specific Anti-Rnase Cocktail against RNase A, 1, and T1.

O=S(=O)(O)c1ccc(-c2ccc(/N=N/c3c(O)ccc4cc(S(=O)(=O)O)ccc34)cc2)cc1 [D726712]
Ki (nuclease): ~350 µM

[Cl-].[Cl-].[Mg+2] [MgCl2]
effect of mixing with Specific Anti-RNase Cocktail (RNase A, 1, and T1; MgCl2 mixed together with cocktail): best

CC(=O)Nc1ccc(N=Nc2c(S(=O)(=O)O)cc3cc(S(=O)(=O)O)cc(NC(C)=O)c3c2O)cc1 [acid violet7, acid violet 7]
Ki (nuclease): 71 µM

O=C(O)CC(O)(CC(=O)O)C(=O)O [citrate, reference compound]
protection of total RNA from degradation (diluted pancreas lysate; 50 mm citrate, pancreas lysate 1:20,000, e. coli total rna, room temperature 4 min): significant protection

Nc1cccc(C(=O)Nc2ccc3c(O)cc(S(=O)(=O)O)cc3c2)c1 [compound 1743]
KI (nuclease): in-activeat 75uM

Nc1c(OCC(=O)O)ccc2cc(S(=O)(=O)O)ccc12 [compound 16163]
KI (nuclease): in-activeat 75uM

O=C(Nc1cc(S(=O)(=O)O)cc2cc(S(=O)(=O)O)cc(O)c12)c1ccccc1 [compound 16169]
KI (nuclease): in-activeat 75uM

Cc1cc(/N=N/c2ccc(S(=O)(=O)O)c3ccccc23)ccc1O [compound 45557]
Ki (nuclease): > 500 µM

Cc1ccccc1/N=N/c1ccc(/N=N/c2c(O)ccc3cc(S(=O)(=O)O)cc(S(=O)(=O)O)c23)c(C)c1 [compound 45601]
Ki (nuclease): 122 µM

O=C(Nc1ccc(/N=N/c2ccc3cc(S(=O)(=O)O)cc(S(=O)(=O)O)c3c2)cc1)c1ccc(/N=N/c2c(O)ccc3cc(S(=O)(=O)O)cc(S(=O)(=O)O)c23)cc1 [compound 65841]
Ki (nuclease): 5 µM

O=S(=O)(O)c1cc(O)c2c(/N=C/c3ccccc3O)cc(S(=O)(=O)O)cc2c1 [compound 88947]
KI (nuclease): in-activeat 75uM

O=C(O)C1=NN(c2ccccc2)C(=O)\C1=C/C=C/C=C/C1C(=O)N(c2ccccc2)N=C1C(=O)O (stereo not drawn) [compound 102704, 4-[5-(3-carboxy-5-oxo-1-phe-nyl-1,5-dihydro-4H-pyra-zol-4-ylidene)-1,3-penta-dien-1-yl]-5-hy-droxy-1-phenyl-1H-pyra-zole-3-carboxylic acid]
DNase inhibition (DNase I): modestly inhibitory

Cc1ccc(C)n1-c1cccc(C(=O)O)c1 [compound 128773, 3-(2,5-dimethyl-1H-pyr-rol-1-yl)benzoic acid]
DNase inhibition (DNase I): modestly inhibitory

O=C(COc1ccc(I)cc1)c1c(O)cc(O)cc1O [compound 140553, 2-(4-iodo-phenoxy)-1-(2,4,6-tri-hydroxyphenyl)etha-none]
DNase inhibition (DNase I): little or no DNase inhibition

Cc1ccc(S(=O)(=O)Nc2ccc(Cc3ccc(NS(=O)(=O)c4ccc(C)cc4)c(C(=O)O)c3)cc2C(=O)O)cc1 [compound 180582, 3,3′-methylenebis(6-[4-meth-ylphenylsulfonyl]a-mino)benzoic acid]
DNase inhibition (DNase I): little or no DNase inhibition

O=C(N/N=C(\c1ccccc1)c1ccncc1)c1ccccc1 [compound 227726, N′-[phenyl(4-pyri-dinyl)meth-ylene]benzohydrazide]
DNase inhibition (DNase I): modestly inhibitory
concentration tolerated in RT-PCR [1]: at least 1.3 mM
Cycle Threshold ([1]; Input RNA = 1 ng, inhibitor 130 uM): 26.01 and 26.08
Cycle Threshold ([1]; Input RNA = 1 ng, inhibitor 655 uM): 26.14 and 26.18
Cycle Threshold ([1]; Input RNA = 1 ng, inhibitor 1.3 mM): 26.08 and 26.18
Cycle Threshold ([1]; Input RNA = 10 ng, inhibitor 130 uM): 23.18 and 23.24
Cycle Threshold ([1]; Input RNA = 10 ng, inhibitor 655 uM): 23.01
Cycle Threshold ([1]; Input RNA = 10 ng, inhibitor 1.3 mM): 23.02 and 23.04
% Cleavage (MMLV RT RNase H; inhibitor 100 uM): 45%
% Cleavage (MMLV RT RNase H; inhibitor 524 uM): 43%
% Cleavage (MMLV RT RNase H; inhibitor 1000 uM): 47%

N#CS.N=C(N)N [guanidine thiocyanate]
effect on Specific Anti-RNase Cocktail (RNase A, 1, and T1): more inhibitory against different antibodies.

NCCCCNCCCN [spermidine]
effect on anti-RNase A, 1, and T1 activity of Specific Anti-RNase Cocktail (RNase A, 1, and T1; 5 mM spermidine mixed with cocktail): 5 Mm spermidine mixed with Specific Anti-RNase Cocktail enhanced anti-RNase

NC(N)=O [urea]
effect on action of Specific Anti-RNase Cocktail (RNase A, 1, and T1; 6 M urea added to cocktail): Anti-Rnase Cocktail strengthened the action of Specific Anti-RNase Cocktail.
concentration that inhibited RNase A activity (RNase A): 6 M urea inhibited RNase A activity. This concentration of urea added to the Specific

NP-40
effect on action of Specific Anti-RNase Cocktail against RNase A, 1, and T1 (RNase A, 1, and T1): strengthened the action of Specific Anti-Rnase Cocktail against RNase A, 1, and T1.

Triton X-100
effect on action of Specific Anti-RNase Cocktail against RNase A, 1, and T1 (RNase A, 1, and T1): strengthened the action of Specific Anti-Rnase Cocktail against RNase A, 1, and T1.

cefsulodin [reference compound]
Ki (nuclease): 201 µM

eriochrome black T [erio-chromeblack T]
Ki (nuclease): 50 µM

oligovinylsulfonic acid [OVA, reference compound]
protection of RNA from degradation (diluted pancreas lysate; 6.25 mM OVA, pancreatic lysate 1:20,000, mouse liver total RNA, 25 C 4 min): help remedy RNA degradation
